Target: T1, human IL-17AA (Homo sapiens, UniProt Q16552)
T1 construct: host or cells: HEK (human embryonic kidney) cells
T1 sequence (Q16552 24-155): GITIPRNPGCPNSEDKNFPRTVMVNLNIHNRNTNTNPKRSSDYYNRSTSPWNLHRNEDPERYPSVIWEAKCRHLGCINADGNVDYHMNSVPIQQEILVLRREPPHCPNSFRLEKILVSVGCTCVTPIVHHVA
Assay: IL-8 release assay in human epithelial keratinocytes adult (HEKa)
Type: cell-based
Conditions: HEKa cells, 3 ng/mL HEK-human IL-17AA + 10 ng/mL human TNFalpha; read-out: Rel EC50 IL-8 release assay
In short: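 IL-8 release, quantified by HTRF and normalized to controls, reports IL-17 signaling in HEKa cells treated with compound plus final 3 ng/mL IL-17AA (HEK-derived) and 10 ng/mL TNF-alpha for 68-72 h; TNF-alpha-only wells set 100% inhibition. Four-parameter logistic fits (r^2>0.9) give relative IC50 and Emax; PrestoBlue flags cytotoxicity.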

Structure (SMILES) | EC50 [nM]
Cc1n[nH]c(C)c1-c1ccc(NC(=O)[C@@H](NC(=O)c2ccccc2)C(C2CC2)C2CC2)cc1 [Example 167, N-[(1S)-1-(dicyclopropylmethyl)-2-[4-(3,5-dimethyl-1H-pyrazol-4-yl)anilino]-2-oxo-ethyl]benzamide] | 100 to 1000
Cc1n[nH]c(C)c1-c1ccc(NC(=O)[C@@H](NC(=O)C(C)(C)C)C(C2CC2)C2CC2)cc1 [Example 168, N-[(1S)-1-(dicyclopropylmethyl)-2-[4-(3,5-dimethyl-1H-pyrazol-4-yl)anilino]-2-oxo-ethyl]-2,2-dimethyl-propanamide] | > 1000
Cc1n[nH]c(C)c1-c1ccc(NC(=O)[C@@H](NC(=O)C2CCC2)C(C2CC2)C2CC2)cc1 [Example 169, N-[(1S)-1-(dicyclopropylmethyl)-2-[4-(3,5-dimethyl-1H-pyrazol-4-yl)anilino]-2-oxo-ethyl]cyclobutane carboxamide] | > 1000
Cc1n[nH]c(C)c1-c1ccc(NC(=O)[C@@H](NC(=O)C2CCCC2)C(C2CC2)C2CC2)cc1 [Example 170, N-[(1S)-1-(dicyclopropylmethyl)-2-[4-(3,5-dimethyl-1H-pyrazol-4-yl)anilino]-2-oxo-ethyl]cyclopentane carboxamide] | 100 to 1000
Cc1n[nH]c(C)c1-c1ccc(NC(=O)[C@@H](NC(=O)c2ccnn2C(C)C#N)C(C2CC2)C2CC2)cc1 (stereo partly drawn) [Example 171, 2-(1-cyanoethyl)-N-[(1S)-1-(dicyclopropylmethyl)-2-[4-(3,5-dimethyl-1H-pyrazol-4-yl)anilino]-2-oxo-ethyl]pyrazole-3-carboxamide] | > 1000
Cc1n[nH]c(C)c1-c1ccc(NC(=O)[C@@H](NC(=O)c2ccn(C(C)C#N)n2)C(C2CC2)C2CC2)cc1 (stereo partly drawn) [Example 172, 1-(1-cyanoethyl)-N-[(1S)-1-(dicyclopropylmethyl)-2-[4-(3,5-dimethyl-1H-pyrazol-4-yl)anilino]-2-oxo-ethyl]pyrazole-3-carboxamide] | > 1000
Cc1n[nH]c(C)c1-c1ccc(NC(=O)[C@@H](NC(=O)c2ccnn2CCC(O)C(F)(F)F)C(C2CC2)C2CC2)cc1 (stereo partly drawn) [Example 179, N-[(1S)-1-(dicyclopropylmethyl)-2-[4-(3,5-dimethyl-1H-pyrazol-4-yl)anilino]-2-oxo-ethyl]-2-(4,4,4-trifluoro-3-hydroxy-butyl)pyrazole-3-carboxamide] | < 100
CCn1nccc1C(=O)N[C@H](C(=O)Nc1ccc(-c2c(C)n[nH]c2C)cc1)[C@@H]1CC2(CC2)CCC1(F)F [Example 180, N-[(1S)-1-[(7S)-6,6-difluorospiro[2.5]octan-7-yl]-2-[4-(3,5-dimethyl-1H-pyrazol-4-yl)anilino]-2-oxo-ethyl]-2-ethyl-pyrazole-3-carboxamide] | < 100
Cc1n[nH]c(C)c1-c1ccc(NC(=O)[C@@H](NC(=O)c2ccnn2C(C)C)[C@@H]2CC3(CC3)CCC2(F)F)cc1 [Example 181, N-[(1S)-1-[(7S)-6,6-difluorospiro[2.5]octan-7-yl]-2-[4-(3,5-dimethyl-1H-pyrazol-4-yl)anilino]-2-oxo-ethyl]-2-isopropyl-pyrazole-3-carboxamide] | < 100
Cc1n[nH]c(C)c1-c1ccc(NC(=O)[C@@H](NC(=O)c2ccnn2CCO)C(C2CC2)C2CC2)cc1 [Example 183, N-[(1S)-1-(dicyclopropylmethyl)-2-[4-(3,5-dimethyl-1H-pyrazol-4-yl)anilino]-2-oxo-ethyl]-2-(2-hydroxyethyl)pyrazole-3-carboxamide] | 100 to 1000

Second part, the molecule after the results:

EC50 [nM] | Structure (SMILES)
< 100 | Cc1n[nH]c(C)c1-c1ccc(NC(=O)[C@@H](NC(=O)c2ccnn2CC(F)(F)F)C(C2CC2)C2CC2)cc1 [Example 184, N-[(1S)-1-(dicyclopropylmethyl)-2-[4-(3,5-dimethyl-1H-pyrazol-4-yl)anilino]-2-oxo-ethyl]-2-(2,2,2-trifluoroethyl)pyrazole-3-carboxamide]
< 100 | Cc1n[nH]c(C)c1-c1ccc(NC(=O)[C@@H](NC(=O)c2ccnn2CCC(C)O)C(C2CC2)C2CC2)cc1 (stereo partly drawn) [Example 185, N-[(1S)-1-(dicyclopropylmethyl)-2-[4-(3,5-dimethyl-1H-pyrazol-4-yl)anilino]-2-oxo-ethyl]-2-(3-hydroxybutyl)pyrazole-3-carboxamide]
< 100 | Cc1n[nH]c(C)c1-c1ccc(NC(=O)[C@@H](NC(=O)c2ccnn2CC(C)(F)F)C(C2CC2)C2CC2)cc1 [Example 186, N-[(1S)-1-(dicyclopropylmethyl)-2-[4-(3,5-dimethyl-1H-pyrazol-4-yl)anilino]-2-oxo-ethyl]-2-(2,2-difluoropropyl)pyrazole-3-carboxamide]
< 100 | Cc1n[nH]c(C)c1-c1ccc(NC(=O)[C@@H](NC(=O)c2ccnn2C(C)C(F)F)C(C2CC2)C2CC2)cc1 (stereo partly drawn) [Example 189, N-[(1S)-1-(dicyclopropylmethyl)-2-[4-(3,5-dimethyl-1H-pyrazol-4-yl)anilino]-2-oxo-ethyl]-2-(2,2-difluoro-1-methyl-ethyl)pyrazole-3-carboxamide]
100 to 1000 | Cc1n[nH]c(C)c1-c1ccc(NC(=O)[C@@H](NC(=O)c2ccnn2C)C(C)C(C)C)cc1 (stereo partly shown) [Example 197]
> 1000 | Cc1n[nH]c(C)c1-c1ccc(NC(=O)[C@@H](NC(=O)c2ccn(C)n2)C(C2CC2)C2CC2)cc1 [Example 198, N-[(1S)-1-(dicyclopropylmethyl)-2-[4-(3,5-dimethyl-1H-pyrazol-4-yl)anilino]-2-oxo-ethyl]-1-methyl-pyrazole-3-carboxamide]
> 1000 | CCn1ccc(C(=O)N[C@H](C(=O)Nc2ccc(-c3c(C)n[nH]c3C)cc2)C(C2CC2)C2CC2)n1 [Example 199, N-[(1S)-1-(dicyclopropylmethyl)-2-[4-(3,5-dimethyl-1H-pyrazol-4-yl)anilino]-2-oxo-ethyl]-1-ethyl-pyrazole-3-carboxamide]
< 100 | Cc1n[nH]c(C)c1-c1ccc(NC(=O)[C@@H](NC(=O)c2ccnn2C(C)C)C2C3CC4CC(C3)CC2C4)cc1 (stereo partly drawn) [Example 200, N-[(1S)-1-(2-adamantyl)-2-[4-(3,5-dimethyl-1H-pyrazol-4-yl)anilino]-2-oxo-ethyl]-2-isopropyl-pyrazole-3-carboxamide]
< 100 | CCn1nccc1C(=O)N[C@H](C(=O)Nc1ccc(-c2c(C)n[nH]c2C)cc1)C1C2CC3CC(C2)CC1C3 (stereo partly drawn) [Example 201, N-[(1S)-1-(2-adamantyl)-2-[4-(3,5-dimethyl-1H-pyrazol-4-yl)anilino]-2-oxo-ethyl]-2-ethyl-pyrazole-3-carboxamide]
< 100 | Cc1n[nH]c(C)c1-c1ccc(NC(=O)[C@@H](NC(=O)c2ccnn2C)C2C3CC4CC(C3)CC2C4)cc1 (stereo partly drawn) [Example 202, N-[(1S)-1-(2-adamantyl)-2-[4-(3,5-dimethyl-1H-pyrazol-4-yl)anilino]-2-oxo-ethyl]-2-methyl-pyrazole-3-carboxamide]
< 100 | Cc1n[nH]c(C)c1-c1ccc(NC(=O)[C@@H](NC(=O)c2ccnn2CCC(C)O)[C@H]2CC[C@H](C)CC2)cc1 (stereo partly drawn) [Example 203, N-[(1S)-2-[4-(3,5-dimethyl-1H-pyrazol-4-yl)anilino]-1-(trans-4-methylcyclohexyl)-2-oxo-ethyl]-2-(3-hydroxybutyl)pyrazole-3-carboxamide]
< 100 | COCCn1nccc1C(=O)N[C@H](C(=O)Nc1ccc(-c2c(C)n[nH]c2C)cc1)C(C1CC1)C1CC1 [Example 206, N-[(1S)-1-(dicyclopropylmethyl)-2-[4-(3,5-dimethyl-1H-pyrazol-4-yl)anilino]-2-oxo-ethyl]-2-(2-methoxyethyl)pyrazole-3-carboxamide]

Reference: patent US11377425B1, “Small molecule modulators of IL-17” (LEO Pharma A/S, priority 2018, dated 2022)
